Target: Tie-2 kinase enzyme (Homo sapiens, UniProt Q02763)
Test: Tie-2 Homogenous Time Resolved Flourescent (HTRF) kinase assay
Format: biochemical
Settings: 0.01 mM ATP, about 90 minutes at RT; read-out: IC50 for the inhibition of Tie-2 as measured by the HTRF assay
Experimental: IC50's for the inhibition of the Tie-2 kinase enzyme for individual compounds were measured using an HTRF assay, utilizing the following procedure:
In a 96 well plate (available from Costar Co.) was placed 1 uL of each test and standard compound per well in 100% DMSO having a 25 uM final compound concentration (3-fold, 10 point dilution). To each well was added 20 uL of a reaction mix formed from […], 0.05% BSA (0.1 uL; from a 10% stock solution available from Sigma-Aldrich Co.), 0.002 mM of BLC HER-2 KKK (Biotinylated Long chain peptide; 0.04 uL; from a […] stock solution), 0.01 mM concentration of ATP (0.02 uL; commercially available from Sigma-Aldrich Co.) and the remaining solution was water (15.84 uL) to make to a total volume of 20 uL/well.
The reaction was initiated in each well by adding 20 uL per well of an enzyme preparation consisting of a 50 mM concentration of Hepes (1.0 uL; from a 1000 mM stock solution commercially available from Gibco Co.), 0.05% concentration of BSA (0.1 uL), 4 mM of DTT (0.08 uL; from a 1000 mM stock solution available from Sigma-Aldrich Co.), a 2.4×10^−7 concentration of Tie-2 (0.02 uL, from a 4 mM concentration stock), with the remaining volume being water (18.8 uL) to dilute the enzyme preparation to a total volume of 20 uL. The plate was incubated for about 90 minutes at RT. After incubation, a 160 uL of a filtered detection mixture, prepared from 0.001 mg/ml of SA-APC (0.0765 uL; available as a 2.09 mg/ml stock solution from Gibco), 0.03125 nM concentration of Eu-Ab (0.1597 uL; available in a 31.3 nM stock solution from Gibco), with the remaining volume being Detection buffer (159.73 uL), was added to each well to stop the reaction therein. The plate was then allowed to equilibrate for about 3 hr and read on a Ruby Star fluorescent reader (available from BMG Technologies, Inc.) using a 4 parameter fit using activity base to calculate the corresponding IC50's for the test and standard compounds in each well.

Chain of Tie-2 kinase enzyme (Q02763 23-1124): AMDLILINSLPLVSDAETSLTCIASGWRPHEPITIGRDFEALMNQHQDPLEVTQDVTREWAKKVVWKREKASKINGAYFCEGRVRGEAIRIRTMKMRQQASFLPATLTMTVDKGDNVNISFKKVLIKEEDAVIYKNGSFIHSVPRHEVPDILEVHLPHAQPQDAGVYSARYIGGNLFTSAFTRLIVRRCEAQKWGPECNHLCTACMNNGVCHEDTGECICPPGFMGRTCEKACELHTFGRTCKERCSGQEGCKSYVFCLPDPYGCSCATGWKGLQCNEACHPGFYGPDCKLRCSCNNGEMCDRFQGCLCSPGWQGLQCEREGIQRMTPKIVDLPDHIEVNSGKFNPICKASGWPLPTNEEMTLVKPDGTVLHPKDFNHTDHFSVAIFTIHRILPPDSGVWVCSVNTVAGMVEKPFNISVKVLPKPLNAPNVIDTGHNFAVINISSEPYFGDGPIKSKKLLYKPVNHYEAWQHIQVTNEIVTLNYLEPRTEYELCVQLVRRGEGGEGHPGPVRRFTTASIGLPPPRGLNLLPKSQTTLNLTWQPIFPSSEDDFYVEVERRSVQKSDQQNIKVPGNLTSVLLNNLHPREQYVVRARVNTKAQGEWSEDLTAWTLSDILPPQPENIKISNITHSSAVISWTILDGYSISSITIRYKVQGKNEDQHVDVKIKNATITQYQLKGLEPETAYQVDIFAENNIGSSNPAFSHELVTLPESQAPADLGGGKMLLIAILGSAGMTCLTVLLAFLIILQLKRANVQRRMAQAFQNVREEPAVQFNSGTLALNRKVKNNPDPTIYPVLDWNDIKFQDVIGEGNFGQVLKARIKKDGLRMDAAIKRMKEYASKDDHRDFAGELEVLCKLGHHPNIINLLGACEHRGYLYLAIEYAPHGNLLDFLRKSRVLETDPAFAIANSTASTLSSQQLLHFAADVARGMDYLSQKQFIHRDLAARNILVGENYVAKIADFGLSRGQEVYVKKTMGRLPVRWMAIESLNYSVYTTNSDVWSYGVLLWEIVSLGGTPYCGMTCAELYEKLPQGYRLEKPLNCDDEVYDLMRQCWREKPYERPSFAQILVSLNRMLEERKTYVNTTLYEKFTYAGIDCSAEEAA

Cc1ccc(C(=O)Nc2cccc(C(C)C)c2)cc1Nc1ncccc1-c1nnn[nH]1 [Example 3, 3-(3-(1H-tetrazol-5-yl)pyridin-2-ylamino)-N-(3-isopropylphenyl)-4-methylbenzamide] and Cc1ccc(C(=O)Nc2cccc(C(C)C)c2)cc1Oc1ncccc1-c1cnco1 [Example 14, N-(3-isopropylphenyl)-4-methyl-3-(3-(oxazol-5-yl)pyridin-2-yloxy)benzamide] cannot be ordered by IC50: ≤ 1000 nM for the first, ≤ 100 nM for the second.

COc1ccc(C2CCCCC2)cc1NC(=O)c1ccc(C)c(Oc2ncccc2-c2cn[nH]c2)c1 [Example 11, 3-(3-(1H-pyrazol-4-yl)pyridin-2-yloxy)-N-(5-cyclohexyl-2-methoxyphenyl)-4-methylbenzamide] and Cc1ccc(C(=O)Nc2cccc(C(C)C)c2)cc1Oc1ncccc1-c1cn[nH]c1 [Example 1, 3-(3-(1H-pyrazol-4-yl)pyridin-2-yloxy)-N-(3-isopropylphenyl)-4-methylbenzamide] cannot be ordered by IC50: ≤ 100 nM for the first, ≤ 100 nM for the second.

CN(C)CCCN(C)c1ccc(C(F)(F)F)cc1NC(=O)c1cc(Oc2ncccc2-c2cnco2)ccc1F [Example 2, N-(2-((3-(dimethylamino)propyl)(methyl)amino)-5-(trifluoromethyl)phenyl)-2-fluoro-5-(3-(oxazol-5-yl)pyridin-2-yloxy)benzamide] and Cc1ccc(C(=O)Nc2cc(C(F)(F)F)ccc2N(C)CCCN(C)C)cc1Oc1ncccc1-c1cnco1 [Example 20, N-(2-((3-(dimethylamino)propyl)(methyl)amino)-5-(trifluoromethyl)phenyl)-4-methyl-3-(3-(oxazol-5-yl)pyridin-2-yloxy)benzamide] cannot be ordered by IC50: ≤ 500 nM for the first, ≤ 500 nM for the second.

Cc1ccc(C(=O)Nc2cccc(C(C)C)c2)cc1Nc1ncccc1-c1nnn[nH]1 [Example 12, 3-(3-(1H-tetrazol-5-yl)pyridin-2-ylamino)-N-(3-isopropylphenyl)-4-methylbenzamide] and Cc1ccc(C(=O)Nc2cccc(C(C)C)c2)cc1Oc1ccccc1-c1cnco1 [Example 18, N-(3-isopropylphenyl)-4-methyl-3-(2-(oxazol-5-yl)phenoxy)benzamide] cannot be ordered by IC50: ≤ 500 nM for the first, ≤ 100 nM for the second.

O=C(Nc1ccc(Oc2ncccc2-c2cn[nH]c2)cc1)c1ccccc1Nc1ccccc1 [Example 23, N-(4-(3-(1H-pyrazol-4-yl)pyridin-2-yloxy)phenyl)-2-(phenylamino)benzamide] and Cc1ccc(C(=O)Nc2cccc(C(C)C)c2)cc1Oc1ncccc1-c1cnn(Cc2ccccc2)c1 [Example 10, 3-(3-(1-benzyl-1H-pyrazol-4-yl)pyridin-2-yloxy)-N-(3-isopropylphenyl)-4-methylbenzamide] cannot be ordered by IC50: ≤ 1000 nM for the first, ≤ 500 nM for the second.

O=C(Nc1cccc(OC(F)(F)F)c1)c1cc(Oc2ncccc2-c2cnco2)ccc1F [Example 16, 2-fluoro-5-(3-(oxazol-5-yl)pyridin-2-yloxy)-N-(3-(trifluoromethoxy)phenyl)benzamide] and Cc1ccc(C(=O)Nc2cccc(C(F)(F)F)c2)cc1Oc1ncccc1-c1cnco1 [Example 22, 4-methyl-3-(3-(oxazol-5-yl)pyridin-2-yloxy)-N-(3-(trifluoromethyl)phenyl)benzamide] cannot be ordered by IC50: ≤ 1000 nM for the first, ≤ 100 nM for the second.

Cc1ccc(C(=O)Nc2cc(C(F)(F)F)ccc2N(C)CCCN(C)C)cc1Oc1ccccc1-c1cnco1 [Example 19, N-(2-((3-(dimethylamino)propyl)(methyl)amino)-5-(trifluoromethyl)phenyl)-4-methyl-3-(2-(oxazol-5-yl)phenoxy)benzamide] and Cc1ccc(C(=O)Nc2cccc(C(F)(F)F)c2)cc1Oc1ncccc1-c1ccn[nH]1 [Example 15, 3-(3-(1H-pyrazol-5-yl)pyridin-2-yloxy)-4-methyl-N-(3-(trifluoromethyl)phenyl)benzamide] cannot be ordered by IC50: ≤ 500 nM for the first, ≤ 500 nM for the second.

— patent US8822514B2, “Multi-cyclic compounds and methods of use” (Amgen Inc., priority 2006, dated 2014)
